# Patent US20250338846A1, “COMPOSITIONS HAVING PESTICIDAL UTILITY AND PROCESSES RELATED THERETO” (CORTEVA AGRISCIENCE, LLC, priority 2022, published 2025)
# Several values for one entry are separate records, joined by “and”; a condition that tells them apart may be missing. Equal entries are not always repeated.
# Assays:
# [1] = test system: Diamondback Moth (Plutella xylostella, PLUTMA); assay: Bioassay 6: Diamondback Moth, artificial lepidopteran diet, live larvae after 5 days; type: in vivo; settings: DBM; F1 alone 0.4 % w/v
# Protocol: where X=No. of live nymphs on solvent check and Y=No. of live nymphs on treated bean segments. In Table B5 the “Expected % Control” was calculated using the method described in Colby S. R., Weeds, 1967, 15, 20-22. Bioassay 6: Beet Armyworm (Spodoptera exigua, LAPHEG) (BAW), and Diamondback Moth (Plutella xylostella, PLUTMA) (DBM).
# Stock solutions were prepared with Formula One as well as for each of the active ingredients individually. Test solutions were prepared from the stock solutions. Test solutions were prepared containing Formula One, the individual active ingredients, and mixtures of Formula One with each of the active ingredients. The test solution for Formula One was prepared by adding 500 μL of the stock solution to a 25 mL glass vial, then adding 500 μL of a 9:1 mixture of acetone: water. The individual active ingredients were prepared by adding 500 μL of stock solution to a 25 mL glass vial, then adding 500 μL of a 9:1 mixture of acetone: water. The test solutions containing mixtures of Formula One and the individual active ingredients were prepared by adding 500 μL of the active ingredient stock solution to a 25 mL glass vial, followed by 500 μL of the Formula One stock solution, creating a test solution containing 4000 ppm Formula One and 0.4% (w/v) of the active ingredient. Each test solution was serially diluted to create desired doses of test solutions (0.4% (w/v), 0.04% (w/v), 0.004% (w/v), 0.0004% (w/v), 0.00004% (w/v), and 0.000004% (w/v)). In test solutions containing mixtures of Formula One and the active ingredients, the active ingredients were diluted as described above, but the Concentration of Formula One was held constant (0.4% (w/v)). The highest dose test solution (0.4% (w/v)) was discarded, leaving 5 test solution concentrations used in the test.
# The test solutions were tested against BAW and DBM using the following procedure: An artificial lepidopteran diet (Multispecies Lepidopteran Diet, Southland Products) was distributed in 128-cell bioassay trays (Frontier Agricultural Sciences™). 50 μL of test solution was pipetted into a cell in the bioassay tray. (The test solution doses of 0.04% (w/v), 0.004% (w/v), 0.0004% (w/v), 0.00004% (w/v), and 0.000004% (w/v) translated to concentrations of 5, 0.5, 0.05, 0.005, and 0.0005 ug/cm^2 on the diet, respectively.) A reference treatment (solvent check) was treated with the diluent only. […] After 5 days, the number of live larvae were recorded from each cell and percent control was measured using Abbott's correction formula (W. S. Abbott, J. Econ. Entomol. 18 (1925), pp. 265-267) as follows:
# where X=No. of live larvae on solvent check and Y=No. of live larvae on treated diet. In Table B6 the “Expected % Control” was calculated using the method described in Colby S. R., Weeds, 1967, 15, 20-22. […]
# [2] = test system: Cotton Aphid (Aphis gossypii, APHIGO); assay: Bioassay 7: Cotton Aphid, foliar spray on infested cotton seedlings, live aphids counted three days after treatment; type: in vivo
compound,measurement,setting,value
"CCN(C(=O)CCS(C)(=O)=O)c1sc(-c2cccnc2)nc1Cl [Formula F1, N-(4-chloro-2-(pyridin-3-yl)thiazol-5-yl)-N-ethyl-3-(methylsulfonyl)propanamide]",Average % Control F1,[1],0%
same,Average % Control F1,[2]; F1 alone 0.1 (10^-5) Wt %,24.39%
same,Average % Control F1,[2]; F1 alone 0.2 (10^-5) Wt %,5.79%
same,Average % Control F1,[2]; F1 alone 0.78 (10^-5) Wt %,25.58%
same,Average % Control F1,[2]; F1 alone 0.8 (10^-5) Wt %,24.39% and 47.56%
same,Average % Control F1,[2]; F1 alone 2.5 (10^-5) Wt %,29.04%
